Assay results taken from patent US8088822B2, “Use of fenretinide or bioactive derivatives thereof and pharmaceutical compositions comprising the same” (priority 2008, dated 2012).
Where a SMILES comes first, the peptide text is derived from it. The star is where a group is joined. Cbz = O=C(OCc1ccccc1)*

Key:
U937 [1] = assay: Apoptosis in AML cell line U937; assay type: cell-based; conditions: U937, within 48 hours, alone or combined
Protocol: (§1) 2×10^5 cultured cells were used for evaluating apoptosis using an ApoAlert Annexin V-FITC Apoptosis Kit (BD Biosciences). Cells were washed once by PBS, resuspended in 200 μl Annexin-V binding buffer, and then stained with Annexin V-FITC 5 μl, PI 10 μl for 15 min at room temperature in the dark. Cells were subsequently analyzed by flow cytometry.
There are two observations that drive us in further exploring alternative therapeutic combinations. As illustrated in Example 6, proteasome inhibitors can potentate fenretinide-induced apoptosis in leukemia. […] The apoptosis rates were quite low when treated alone within 48 hours (nearly 5%), and the number doubled when treated by fenretinide and MG132.

K562 = assay: Apoptosis in CML cell line K562; assay type: cell-based; conditions: 4 μM fenretinide, 0.25 μM imatinib, 0.1 μM MG132, alone or combined
Protocol: as §1

NB4 cells = assay: Antagonist assays, apoptosis of NB4 cells; assay type: cell-based; conditions: 100 μM vitamin C pre-treatment 2 hours, then 1 μM fenretinide 24 hours
MKN45 = assay: Apoptosis in gastric tumor cell line MKN45 (Rh123/PI, FACS); assay type: cell-based; conditions: MKN45, 48 hours; 4 μM fenretinide, 5 μM Tet, alone or co-treatment
Protocol: Loss of MTP was evaluated through rhodamine 123 (Rh123) and propidium iodide (PI) staining. 2×10^5 cells were washed by PBS and incubated with 1 μg/ml Rh123 at 37° C. for 30 min. After washed by PBS, 10 μl PI was added to cells for 15 min at room temperature in the dark. Fluorescence emission at 530 nm (representing R123 retention as a function of MTP) was measured with flow cytometry.
Fenretinide induces intracellular ROS and ER stress to activate series of molecular events including apoptotic pathway and such anti-apoptotic pathways as NF-κB cascade. NF-κB can mediate the progression of inflammation-related cancer. […] Unlike fenretinide, Tet is the well-known anti-cancer and anti-inflammation drugs via inhibiting the activity of NF-κB. For example, Tet, as the main effective component of Stephenia tetrandra S Moore, has bioactivities in reversing MDR (multidrug resistance), blocking calcium ion channel and so on. […] FIGS. 19A and 19B show synergistic induction of apoptosis by fenretinide and Tet, as evaluated by Rh123/PI double stain using FACS. […] Through annexin-V/PI double staining, synergistic apoptosis profiles of fenretinide/tetrandrine co-treated MKN45 and SGC7901 cells were also observed (see FIGS. 19C and 19D).

[2] = tested on: CD34+CD38− AML stem cells; assay: Apoptosis of AML stem cells; assay type: cell-based, human; conditions: 1-7.5 μM, 48 h
Protocol: (§2) Primitive AML and CML subpopulations (CD34^+ cells) were identified using CD34-PE in combination with CD38-APC, and followed by double-labeling with 7AAD and Annexin V antibodies for apoptosis assessment. The CD34^+ cells were first stained with antibodies against the surface markers CD34-PE and CD38-APC (Beckman Coulter, Fullerton, Calif.) and incubated at room temperature for 15 minutes. Cells were then washed with cold PBS and resuspended in 200 μL annexin V 1×binding buffer (10 mM HEPES/NaOH, pH 7.4, 140 mM NaCl, 2.5 mM CaCl2), 5 μL AnnexinV-FITC (BD Phanningen, San Diego, Calif.) and 7-aminoactinomycin (7-AAD, 0.25 mg/mL) (Molecular Probes, Eugene, Oreg.). Subsequently, the samples were incubated at room temperature for 15 minutes and analyzed by flow cytometry.
(§3) To determine whether 4-oxo-N-(4-hydroxyphenyl)retinamide like fenretinide could preferentially target primitive leukemia cells, CD34^+ cells are isolated from bone marrow specimens of AML patients and subjected to apoptosis assay upon the treatment with 1-7.5 μM 4-oxo-N-(4-hydroxyphenyl)retinamide for 48 h.

HL60 cells [3] = assay: MTT cell viability of quiescent and proliferating HL60 cells; assay type: cell-based; conditions: 0-10 μM, 24 and 48 h
Protocol: The cell viability was determined by 3-(4,5-dimethylthiazol-2-yl)-2,5-diphenyltetrazolium bromide (MTT) assay.
As previous case (Example 1), HL60 cells were chosen as serum deprived quiescent leukemic cell model obtained when incubated in RPMI 1640 without serum for 48 h. Serum-deprived quiescent leukemic cells and proliferating leukemic cells were then cultured in media containing 0.5% FBS, and treated with 0-10 μM 4-oxo-N-(4-hydroxyphenyl)retinamide for 24 and 48 h, respectively. The cell viability was test by MTT assay.

[4] = tested on: CD34+CD38+ AML progenitor cells; assay: Apoptosis of AML progenitor cells; assay type: cell-based, human; conditions: 1-7.5 μM, 48 h
Protocol: as §2, §3

HL60 cells [5] = assay: Annexin V apoptosis assay in proliferating and serum-deprived quiescent HL60 cells; assay type: cell-based; conditions: 20 μM IDA
Protocol: (§4) HL60 cells were cultured in RPMI 1640 supplemented (i) with or (ii) without 10% fetal bovine serum to obtain proliferating and quiescent leukemia cells respectively. Serum-deprived quiescent leukemic cells and proliferating leukemic cells were then cultured in media containing 0.5% FBS, and treated with 1 μM and 2.5 μM fenretinide, and also with chemotherapeutics as controls, 20 μM idarubicin (IDA) and 5 μM cytarabine (Ara-C).
as §1
(§5) To examine the effects of fenretinide on proliferating and quiescent leukemia cells, HL60 cells were chosen as serum deprived quiescent leukemic cell model obtained when incubated in RPMI 1640 without serum for 48 h, with G0/G1 phase cells (being in quiescent state) accounting up to 59.9%. Serum-deprived quiescent leukemic cells and proliferating leukemic cells were then cultured in media containing 0.5% FBS, and treated with 1 μM and 2.5 μM fenretinide, and also with chemotherapeutics as controls, 20 μM idarubicin (IDA) and 5 μM cytarabine (Ara-C). […] Fenretinide induces intracellular production of ROS, lowers mitochondrial transmembrane potential (MTP), and eventually leads to apoptosis in a variety of malignancies. We measured MTP induced by fenretinide in proliferating and quiescent HL60 cells, as examined through rhodamine 123 and propidium iodide staining and followed by flow cytometry analysis. […] We further measured intracellular ROS abundance induced by fenretinide. […] After incubation with 1 μM and 2.5 μM fenretinide for 3 h, the ROS level of proliferating cells increased by 1.77 and 2.6 fold, respectively.

HL60 cells [6] = assay: Mitochondrial transmembrane potential (MTP) assay, Rh123/PI, HL60 cells; assay type: cell-based; conditions: quiescent HL60 cells; 20 μM IDA or 5 μM Ara-C
Protocol: as §4, §5

CML CD34+ cells = assay: Colony forming assay in primary CML CD34+ cells; assay type: cell-based, human; conditions: 0.25 μM imatinib, 4 μM fenretinide or both, 14 days
From the text: Fresh bone marrow (BM) cells were obtained from 38 patients with CML and 5 non-leukemic donors, 25 AML, 17 ALL, and 8 normal specimens with informed consent according to the Declaration of Helsinki. Approval was obtained from Institutional Review Board at the School of Medicine in Shanghai Jiao Tong University. BM mononuclear cells were isolated by Ficoll density gradient centrifugation (Shanghai Second Reagent Factory, Shanghai, China). CD34^+ Cell were selected using EasySep® Human CD34 Positive Selection kit (Stem Cell Technologies, Vancouver, BC, Canada) according to the manufacturer's instructions. […] The CD34^+ cells were cultured in a serum-free medium (StemPro 34; Gibco BRL, Gaithersburg, Md.) supplemented with growth factors (PeproTech, London, United Kingdom) (20). The growth factors consisted of GM-CSF (200 pg/mL), G-CSF (1 ng/mL); SCF (200 pg/mL); LIF (50 pg/mL), MIP-1α (200 pg/mL) and IL-6 (1 ng/mL).
A quantity of 1000 CD34^+ cells were plated in semisolid methylcellulose-based media (Methocult H4434: Stem Cell Technologies, Vancouver, BC, Canada). After incubation at 37° C. in a fully humidified atmosphere of 5% CO2 for 14 days, granulocyte macrophage-colony-forming units (CFU-GM), erythroid burst-forming units (BFU-E), granulocyte, erythrocyte and monocyte, megakaryocyte-colony-forming units (CUF-GEMM) were counted. Only clusters with >50 cells were counted as a colony.
We further performed study to examine the effects of fenretinide on colony forming in primary CML cells derived from 38 bone marrow specimens of CML patients (TABLE 1). First, CML CD34^+ Cells were isolated using EasySep® Human CD34 Positive Selection kit (Stem Cell Technologies, Vancouver, BC, Canada). Upon treated with 2 μM and 4 μM fenretinide, colony forming assays were performed respectively on granulocyte macrophage-colony-forming units (CFU-GM), erythroid burst-forming units (BFU-E), granulocyte, erythrocyte and monocyte, megakaryocyte-colony-forming units (CFU-GEMM).

patients with CML = patients with CML treated with imatinib; cited from earlier work
U937 [7] = assay: Growth inhibition and combination index in AML cell line U937; assay type: cell-based; conditions: U937, single agent
Protocol: The combination Index (CI) was used to test the combination effect of fenretinide and Ara-C on growth inhibition in AML cell line U937. The CI was calculated according to the classic isobologram equation: CI=d1/D1+d2/D2. In this equation, D1 and D2 represent the doses of drug 1 and drug 2 alone, required to produce x % effect, and d1 and d2 are the doses of drugs 1 and 2 in combination required to produce the same effect. And CI<1, CI>1 and CI=1 represent the synergism, […], respectively.

CC(C)C[C@@H](C=O)NC(=O)[C@H](CC(C)C)NC(=O)[C@H](CC(C)C)NC(=O)OCc1ccccc1 [MG132, N-[(phenyl-methoxy)-carbonyl]-L-leucyl-N-[(1S)-1-formyl-3-methylbutyl]-L-Leucinamide] (Cbz-Leu-Leu-Leu-aldehyde)
apoptosis rate (U937 [1]): ~5%
apoptosis rate (K562): 2.51%

O=C1O[C@H]([C@@H](O)CO)C([O-])=C1O.[Na+] [vitamin C, ascorbic acid sodium salt]
effect on fenretinide-induced apoptosis (NB4 cells): completely abrogated

COc1ccc2cc1Oc1ccc(cc1)C[C@H]1c3cc(c(OC)cc3CCN1C)Oc1c(OC)c(OC)cc3c1[C@H](C2)N(C)CC3 [Tet, tetrandrine]
apoptosis (MKN45): 15.8%

CC1=C(/C=C/C(C)=C/C=C/C(C)=C/C(=O)Nc2ccc(O)cc2)C(C)(C)CCC1=O [4-oxo-N-(4-hydroxyphenyl)retinamide]
apoptosis of CD34+CD38− AML stem cells [2]: dose-dependent manner
sensitivity (cell viability, MTT) of serum-deprived quiescent versus proliferating HL60 cells (HL60 cells [3]): more sensitive
apoptosis of CD34+CD38+ AML progenitor cells [4]: dose-dependent manner

CC(=O)[C@]1(O)Cc2c(O)c3c(c(O)c2[C@@H](O[C@H]2C[C@H](N)[C@H](O)[C@H](C)O2)C1)C(=O)c1ccccc1C3=O [IDA, idarubicin]
apoptosis rate (HL60 cells [5]; proliferating HL60 cells): 88.7%
apoptosis rate (HL60 cells [5]; quiescent HL60 cells): 29.1%
change in MTP (HL60 cells [6]): little change in MTP

Cc1ccc(NC(=O)c2ccc(CN3CCN(C)CC3)cc2)cc1Nc1nccc(-c2cccnc2)n1 [imatinib, 4-[(4-methylpiperazin-1-yl)methyl]-N-[4-methyl-3-[(4-(3-pyridinyl)-pyrimidin-2-yl)amino]phenyl]benzamide]
GFU-GEMM formed by the more primitive progenitor cells (CML CD34+ cells): could be detected
complete cytogenetic response (CCR) (patients with CML): ~87%
apoptosis rate (K562): 12.8%

Nc1ccn([C@@H]2O[C@H](CO)[C@@H](O)[C@@H]2O)c(=O)n1 [Ara-C, cytosine arabinoside]
dose alone required for growth inhibition rate of 65.47% (U937 [7]): 0.091 µM
change in MTP (HL60 cells [6]): little change in MTP
apoptosis rate (U937 [1]): ~5%
